Columns and labels:
Type in all cases: in vivo
[1] = tested on: barnyard grass (Eo); experiment: Test Example 1: herbicidal effects by flooded paddy field treatment; design: herbicidal effects, Eo (barnyard grass):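 0-5 growth inhibition grade; 5 = over 90%; 4 = 70-90%; 3 = 50-70%; 2 = 30-50%; 1 = 10-30%; 0 = under 10%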; conditions: dose 100 g active ingredient per 10 ares, examined on the 21st day after treatment, standards of Table 44
Procedure, shortened: (§1)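 Herbicidal effect is a graded score assigned 21 days after treatment. Application was one day after sowing into flooded (3 cm) puddled paddy soil, with diluted wettable powder dropped onto the water at 100 g active ingredient per 10 ares. Plants were kept in a greenhouse.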

[2] = tested on: monochoria (Mo); experiment: as above; design: herbicidal effects, Mo (monochoria):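 0-5 growth inhibition grade; 5 = over 90%; 4 = 70-90%; 3 = 50-70%; 2 = 30-50%; 1 = 10-30%; 0 = under 10%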; conditions: dose 100 g active ingredient per 10 ares, examined on the 21st day after treatment, standards of Table 44
Procedure, shortened: as §1

[3] = tested on: barnyard grass (Ec); experiment: Test Example 2: herbicidal effects by upland soil treatment; design: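 0-5 growth inhibition grade; 5 = over 90%; 4 = 70-90%; 3 = 50-70%; 2 = 30-50%; 1 = 10-30%; 0 = under 10%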; conditions: dose 100 g active ingredient per 10 ares, examined on the 21st day after treatment
Procedure, shortened: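 Pre-emergence test: barnyard grass and green foxtail sown in upland soil, then soil surface sprayed with wettable-powder formulation at 100 g active ingredient per 10 ares (100 l per 10 ares). Grown in greenhouse; herbicidal effect scored on a rating scale 21 days after treatment.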

[4] = tested on: barnyard grass (Ec); experiment: Test Example 3: herbicidal effects by foliage treatment in upland field; design: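 0-5 growth inhibition grade; 5 = over 90%; 4 = 70-90%; 3 = 50-70%; 2 = 30-50%; 1 = 10-30%; 0 = under 10%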; conditions: dose 100 g active ingredient per 10 ares, examined on the 14th day after treatment
Procedure, shortened: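 Barnyard grass and green foxtail were grown in upland soil for 2 weeks in a greenhouse. A water-diluted wettable powder was sprayed over the foliage at 100 l per 10 ares, giving 100 g active ingredient per 10 ares. Herbicidal effect was scored on day 14 after treatment.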

[5] = tested on: barnyard grass (Eo); experiment: Test Example 4: selectivity for a crop plant by flooded paddy field treatment; design: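 0-5 growth inhibition grade; 5 = over 90%; 4 = 70-90%; 3 = 50-70%; 2 = 30-50%; 1 = 10-30%; 0 = under 10%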; conditions: barnyard grass, dose 25 gai/10a, 21st day after treatment, index per Table 44
Procedure, shortened: (§2)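 Scores reflect visual herbicidal effect, graded on a standard scale 21 days after water-surface treatment. The product, a wettable powder diluted with water, went on dropwise at 25 g a.i. per 10 ares one day after flooding to 3 cm. Weeds grew from sown seed and rice was transplanted at second-leaf stage.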

[6] = tested on: monochoria (Mo); experiment: as above; design: scale not given here; conditions: monochoria, dose 25 gai/10a, 21st day after treatment, index per Table 44
Procedure, shortened: as §2

[7] = tested on: rice (Or); experiment: as above; design: scale not given here; conditions: rice transplanted at second leaf stage, dose 25 gai/10a, 21st day after treatment, index per Table 44
Procedure, shortened: as §2

SMILES | herbicidal effects, Eo (barnyard grass) [1] | herbicidal effects, Mo (monochoria) [2] | Ec (herbicidal effects, index) [3] | Ec (herbicidal effects, index) [4] | Eo (herbicidal effect index) [5] | Mo (herbicidal effect index) [6] | Or (herbicidal effect index on crop) [7]
CC(=O)c1ncncc1C(C(C)C)N(C)C(=O)C(C)c1ccc(Cl)cc1 (mixture of isomers) [1-530] | 5 | 5 | 5 | 4 | 5 | 5 | 1
CC(=O)c1ncncc1C(C(C)C)N(C)C(=O)Cc1ccc(C)cc1 (racemic) [1-529] | 5 | 5 | 5 | 5 | 5 | 5 | 1
C#CCN(C(=O)Cc1ccc(Cl)s1)C(c1cncnc1C(F)(F)F)C(C)C (racemic) [2-74] | 5 | 5 | 5 | 4 | 5 | 5 | 1
CCC(C)C(c1cncnc1C(F)(F)F)N(C)C(=O)Cc1ccc(Cl)cc1F (mixture of isomers) [Compound 1-251] | 5 | 5 | 5 | 4 | 5 | 5 | 1
CCOC(OCC)C(c1cncnc1C(C)C)N(C)C(=O)Cc1ccccc1 (racemic) [1-454] | 5 | 5 | 4 | 4 | 5 | 5 | 1
CN(C(=O)Cc1ccc(F)cc1)C(c1ccsc1)c1cncnc1C(F)(F)F (racemic) [1-441] | 5 | 5 | 5 | 4 | 5 | 5 | 1
CCCc1ncncc1C(CCC)N(C)C(=O)Cc1ccc(F)cc1 (racemic) [1-493] | 5 | 5 | 5 | 4 | 5 | 5 | 1
CCc1ncncc1C(C(C)C)N(C)C(=O)N(C)c1ccc(C)cc1 (racemic) [1-541] | 5 | 5 | 5 | 4 | 5 | 5 | 1
CC(=O)c1ncncc1C(C(C)C)N(C)C(=O)Cc1ccc(F)cc1 (racemic) [1-527] | 5 | 5 | 5 | 4 | 5 | 5 | 1
